# Source: patent US9796907B2, “Invert emulsion gravel pack fluid and method” (Halliburton Energy Services, Inc., priority 2013, dated 2017)
# System: marine juvenile fish Cyprinodont varieties
# Experiment: Ecotoxicity to marine juvenile fish
# Assay type: in vivo
# Text: In addition, the fluid of the disclosure should have an acceptable health, safety, and environmental profile. The dimer diamine (or fatty acid dimer diamine) and polyurea components comprising the suspension agent are environmentally compatible.
smiles,measurement,value
"CCCCCCCCCC(CCCCCCCCN)C(CCCCCCCC)CCCCCCCCCN (stereo not shown) [fatty acid dimer diamine, C36 fatty dimer diamine]",ecotoxicity to marine juvenile fish,low ecotoxicity
